# Measurements as given in US6429215B1, “N-oxide of heterocyclic ester, amide, thioester, or ketone hair growth compositions and uses” (GPI NIL Holdings, Inc., priority 1998, dated 2002).
# Molecular target: FKBP12 (Homo sapiens, UniProt P62942)
# Assay: Inhibition of peptidyl-prolyl isomerase (rotamase) activity, apparent Ki
# Assay type: biochemical
# Conditions: chymotrypsin-coupled assay, N-succinyl-Ala-Ala-Pro-Phe-p-nitroanilide, pH 7.8
# Excerpt: The inhibition of the prolyl peptidyl cis-trans isomerase activity of FKBP may be measured as an indicator of this affinity.
# Inhibition of the peptidyl-prolyl isomerase (rotamase) activity of the compounds used in the inventive methods and pharmaceutical compositions can be evaluated by known methods described in the literature (Harding et al., Nature, 1989, 341:758-760; Holt et al. J. Am. Chem. Soc., 115:9923-9938). These values are obtained as apparent Ki's and are presented for representative compounds in TABLE II.
# The cis-trans isomerization of an alanine-proline bond in a model substrate, N-succinyl-Ala-Ala-Pro-Phe-p-nitroanilide, is monitored spectrophotometrically in a chymotrypsin-coupled assay, which releases paranitroanilide from the trans form of the substrate. The inhibition of this reaction caused by the addition of different concentrations of inhibitor is determined, and the data is analyzed as a change in first-order rate constant as a function of inhibitor concentration to yield the apparent Ki values. […]
# The absorbance at 390 nm versus time is monitored for 90 seconds using a spectrophotometer and the rate constants are determined from the absorbance versus time data files.
# FKBP12, sequence (P62942 whole entry, species assumed): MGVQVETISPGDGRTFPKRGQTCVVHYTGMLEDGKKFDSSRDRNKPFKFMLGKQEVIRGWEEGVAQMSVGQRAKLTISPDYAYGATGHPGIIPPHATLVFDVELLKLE
substance,measurement,value
"3-(3-Pyridyl)-1-propyl (2S)-1-(3,3-Dimethyl-1,2-dioxopentyl)-2-pyrrolidinecarboxylate, N-oxide [Compound 1]",Ki,225 nM
